Data on 4 compounds can be found in ChEMBL document CHEMBL3407455, “Discovery of highly potent, selective, and efficacious small molecule inhibitors of ERK1/2” (J Med Chem, 2015).

The nature of series [1]: in vivo. Particulars: CD-1, mouse, iv, 1 mg/kg.
Series [2] is described as follows: in vivo. Particulars: CD-1, mouse, plasma, po, 5 mg/kg.
Series [3] is described as follows: in vivo. Particulars: CD-1, mouse, po, 5 mg/kg.
The next series can be described thus: in vitro. Particulars: dog, MDCK.
Series [4] is described as follows: in vivo. Particulars: nude, mouse, po, 5 mg/kg.
A short description of series [5]: in vivo. Particulars: nude, mouse, po, 5 mg/kg. The source holds these as a separate data set.
Series [6] in a line: in vivo. The note with it: nude, mouse, plasma, po, 5 mg/kg.
A short description of series [7]: in vivo. Particulars: nude, mouse, po, 5 mg/kg. The source holds these as a separate data set.
Series [8] is described as follows: in vivo. Particulars: nude, mouse, iv, 1 mg/kg.
A short description of series [9]: in vivo. The note with it: nude, mouse, po, 30 mg/kg.
Series [10] in a line: in vivo. The note with it: nude, mouse, po, 30 mg/kg. The source holds these as a separate data set.
The nature of series [11]: in vivo. Particulars: nude, mouse, plasma, po, 30 mg/kg.
A short description of series [12]: in vivo. The note with it: nude, mouse, po, 100 mg/kg.
Series [13] can be described thus: in vivo. The note with it: nude, mouse, po, 100 mg/kg. The source holds these as a separate data set.
Series [14] in a line: in vivo. Particulars: nude, mouse, plasma, po, 100 mg/kg.
Series [15] is described as follows: in vivo. The note with it: nude, mouse, po, 100 mg/kg. This is another data set of the same source.
The nature of series [16]: in vivo. Particulars: nude, mouse, po, 150 mg/kg.
A short description of series [17]: in vivo. The note with it: nude, mouse, po, 150 mg/kg. This is another data set of the same source.
The nature of series [18]: in vivo. Particulars: nude, mouse, plasma, po, 150 mg/kg.
Series [19] in a line: in vivo. Particulars: nude, mouse, po, 150 mg/kg. The source holds these as a separate data set.
The nature of series [20]: in vivo. The note with it: rat, po, 5 mg/kg.
Series [21] can be described thus: in vivo. The note with it: rat, po, 5 mg/kg. The source holds these as a separate data set.
The nature of series [22]: in vivo. The note with it: rat, plasma, po, 5 mg/kg.
Series [23] is described as follows: in vivo. The note with it: rat, po, 5 mg/kg. The source holds these as a separate data set.
A short description of series [24]: in vivo. Particulars: rat, iv, 1 mg/kg.
Series [25] in a line: in vivo. The note with it: dog, po, 5 mg/kg.
Series [26] in a line: in vivo. Particulars: dog, po, 5 mg/kg. The source holds these as a separate data set.
Series [27] is described as follows: in vivo. The note with it: dog, plasma, po, 5 mg/kg.
A short description of series [28]: in vivo. Particulars: dog, po, 5 mg/kg. This is another data set of the same source.
A short description of series [29]: in vivo. The note with it: dog, iv, 2 mg/kg.
Series [30] is described as follows: in vivo. Particulars: cynomolgus monkey, po, 5 mg/kg.
Series [31] in a line: in vivo. Particulars: cynomolgus monkey, po, 5 mg/kg. This is another data set of the same source.
Series [32] is described as follows: in vivo. Particulars: cynomolgus monkey, plasma, po, 5 mg/kg.
Series [33] is described as follows: in vivo. Particulars: cynomolgus monkey, po, 5 mg/kg. This is another data set of the same source.
A short description of series [34]: in vivo. Particulars: cynomolgus monkey, iv, 2 mg/kg.

The clearance is the volume of plasma or blood freed of the substance per unit of time. The term AUC denotes the area under the concentration-time curve, a measure of exposure. The low end stands for less exposure, the high end for more exposure. One may read the Papp A→B as how fast a substance crosses the layer from the apical side. Lower therefore signals poor permeation. In the series “in vivo [1]”, `O=c1cc(-c2ccnc(NC3CCOCC3)n2)ccn1[C@H](CO)c1cccc(Cl)c1` gave a clearance of 114 mL/min/kg. Also, the AUC in the series “in vivo [2]” was 0.59 µM·h. The bioavailability in the series “in vivo [3]” turned out to be 38%. In the series “in vitro”, this compound displayed a Papp A→B of 8.5 ×10⁻⁶ cm/s.

In turn, `O=c1cc(-c2ccnc(NC3CCOCC3)n2)ccn1[C@H](CO)c1cccc(F)c1` yielded a clearance in “in vivo [1]” of 39 mL/min/kg. This compound had an area under the curve (AUC) in “in vivo [2]” of 1.72 µM·h. Further, the bioavailability in the series “in vivo [3]” was found to be 36%. This compound also registered an apical-to-basolateral permeability (Papp A→B) in “in vitro” of 5.5 ×10⁻⁶ cm/s.

A word on the Cmax: it is the highest concentration seen after dosing. What is called half-life is the time needed for the level to fall by half in the phase considered. A lower half-life goes with rapid decline. For the compound `O=c1cc(-c2ccnc(NC3CCOCC3)n2)ccn1[C@H](CO)c1ccc(Cl)c(F)c1`, the clearance worked out at 33 mL/min/kg in the series “in vivo [1]”; 40 mL/min/kg in “in vivo [8]”; 39 mL/min/kg in the series “in vivo [24]”; 18 mL/min/kg in the series “in vivo [29]”; 12 mL/min/kg in the series “in vivo [34]”. Besides, the exposure (AUC) was 3.05 µM·h in the series “in vivo [2]”; 5.4 µM·h in the series “in vivo [6]”; 46.8 µM·h in “in vivo [11]”; 129 µM·h in the series “in vivo [14]”; 175 µM·h in the series “in vivo [18]”; 2.15 µM·h in the series “in vivo [22]”. The AUC in “in vivo [27]” turned out to be 4.87 µM·h; in the series “in vivo [32]”, 3.3 µM·h. Moreover, the bioavailability in the series “in vivo [3]” turned out to be 66%; in the series “in vivo [7]”, 139%; in “in vivo [15]”, 139%; in the series “in vivo [19]” it was 127%; in the series “in vivo [23]” it was 44%; in the series “in vivo [28]” it was 46%. Moreover, the bioavailability in “in vivo [33]” was 22%. Besides, the highest concentration (Cmax) in the series “in vivo [4]” worked out at 3.12 µM; in “in vivo [9]”, 20.2 µM; in “in vivo [12]”, 38.9 µM; in the series “in vivo [16]”, 67.7 µM; in “in vivo [20]” it was 1.49 µM; in “in vivo [25]”, 2.91 µM. Besides, the Cmax in the series “in vivo [30]” worked out at 0.98 µM. The half-life was 3.52 h in the series “in vivo [5]”; 2.33 h in “in vivo [10]”; 1.71 h in the series “in vivo [13]”; 1.97 h in “in vivo [17]”; 1.16 h in the series “in vivo [21]”; 1.55 h in “in vivo [26]”. In the series “in vivo [31]”, this compound showed a half-life of 2.39 h. In “in vitro”, this compound showed an apparent permeability from apical to basolateral (Papp A→B) of 11.3 ×10⁻⁶ cm/s.

In turn, `O=c1cc(-c2ccnc(NC3CCOCC3)n2)ccn1[C@H](CO)c1ccc(F)c(Cl)c1` returned a clearance in the series “in vivo [1]” of 63 mL/min/kg. Besides, the AUC in the series “in vivo [2]” was determined as 2.18 µM·h. Also, the bioavailability in the series “in vivo [3]” was determined as 76%. This compound also gave an apical-to-basolateral permeability (Papp A→B) in “in vitro” of 4.6 ×10⁻⁶ cm/s.
